Patent US20230321108A1, “UNIT DOSAGE COMPOSITION OF AKT INHIBITOR” (NANJING CHIA TAI TIANQING PHARMACEUTICAL CO., LTD., priority 2020, published 2023)

Key:
[1] = test system: LnCap human prostate cancer; assay: Subcutaneous transplantation model of LnCap human prostate cancer; format: in vivo, NCG mice; conditions: for T/C / TGI / TV on the day of the end of the experiment: 18 days; for TV on the day of the end of the experiment / TV on the day of grouping and administration: mean ± SEM; for TV on the day of grouping and administration: baseline
Excerpt: NCG mice, male, 8-10-week-old (when tumor cells were inoculated into the mice). […] LnCap cells in exponential growth phase were harvested and resuspended in PBS to a concentration suitable for subcutaneous tumor inoculation into mice. […] A formula for calculating a tumor volume: long diameter × short diameter^2 / 2. [table] […] Solvent: the solvent was a mixed solvent of PG, PEG400, and water, PG: PEG400: water=(20-40): (20-30): (30-50) (v: v: v). Any ratio within the range can be used. [table] All experimental results are shown as mean tumor volume ± SEM (standard error of mean). Whether there is a significant difference between the treatment group and the control group in terms of tumor volume was determined by the independent samples T test. All data were analyzed by using SPSS 18.0.

[2] = target: AKT3 (Homo sapiens (Human), UniProt Q9Y243); assay: AKT kinase activity assay (HTRF kinEASE TK), AKT3; format: biochemical; conditions: 10 nM ATP, read-out: AKT3 enzyme activity IC50
Description: The substrate and ATP were respectively diluted with the 1× kinase reaction buffer to a concentration 5 times the reaction concentration.
A 5× enzyme working solution was prepared from the 1× kinase reaction buffer.
A 4× streptavidin-XL665 working solution was prepared from the assay buffer.
4× europium-labeled tyrosine kinase substrate antibody working solution The europium-labeled tyrosine kinase substrate antibody was 100-fold diluted with the assay reaction buffer to obtain a working solution.
After all the reagents were prepared according to the above method, except for the enzyme, the reagents were equilibrated to the room temperature and loaded.
b) 2 µL of previously prepared TK-biotin substrate solution (the concentration of the substrate for enzyme screening is shown in Table 1) was placed in each reaction well.
The plate was sealed with a sealing film, and the reaction solution was mixed until uniform and incubated at the room temperature for 10 min to allow the compound to fully react with and bind to the enzyme.
d) 2 µL of ATP solution was placed in each reaction well to initiate a kinase reaction (the concentration of ATP for enzyme screening and reaction time are shown in Table 1).
e) 5 min before the kinase reaction was completed, an assay solution was prepared.
f) After the kinase reaction was completed, 5 µL of diluted streptavidin-XL665 was placed in each reaction well and mixed with the reaction solution until uniform, and the diluted europium-labeled tyrosine kinase substrate antibody assay solution was immediately added.

[3] = target: AKT1 (Homo sapiens (Human), UniProt P31749); assay: AKT kinase activity assay (HTRF kinEASE TK), AKT1; format: biochemical; conditions: 2 µM ATP, read-out: AKT1 enzyme activity IC50
Chain of AKT1 (P31749 whole entry): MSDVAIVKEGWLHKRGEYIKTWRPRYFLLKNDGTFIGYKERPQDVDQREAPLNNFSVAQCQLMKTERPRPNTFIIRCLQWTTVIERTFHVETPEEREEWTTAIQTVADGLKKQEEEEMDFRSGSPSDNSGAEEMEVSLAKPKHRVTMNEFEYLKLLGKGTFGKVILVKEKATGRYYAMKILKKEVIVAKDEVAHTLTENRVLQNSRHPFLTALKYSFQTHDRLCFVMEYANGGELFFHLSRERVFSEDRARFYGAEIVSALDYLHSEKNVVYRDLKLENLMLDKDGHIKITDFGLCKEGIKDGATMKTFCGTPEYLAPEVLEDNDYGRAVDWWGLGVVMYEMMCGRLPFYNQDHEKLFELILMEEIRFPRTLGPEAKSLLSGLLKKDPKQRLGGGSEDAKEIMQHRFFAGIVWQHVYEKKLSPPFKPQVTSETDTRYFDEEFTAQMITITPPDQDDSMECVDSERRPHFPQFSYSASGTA

Chain of AKT3 (Q9Y243 whole entry): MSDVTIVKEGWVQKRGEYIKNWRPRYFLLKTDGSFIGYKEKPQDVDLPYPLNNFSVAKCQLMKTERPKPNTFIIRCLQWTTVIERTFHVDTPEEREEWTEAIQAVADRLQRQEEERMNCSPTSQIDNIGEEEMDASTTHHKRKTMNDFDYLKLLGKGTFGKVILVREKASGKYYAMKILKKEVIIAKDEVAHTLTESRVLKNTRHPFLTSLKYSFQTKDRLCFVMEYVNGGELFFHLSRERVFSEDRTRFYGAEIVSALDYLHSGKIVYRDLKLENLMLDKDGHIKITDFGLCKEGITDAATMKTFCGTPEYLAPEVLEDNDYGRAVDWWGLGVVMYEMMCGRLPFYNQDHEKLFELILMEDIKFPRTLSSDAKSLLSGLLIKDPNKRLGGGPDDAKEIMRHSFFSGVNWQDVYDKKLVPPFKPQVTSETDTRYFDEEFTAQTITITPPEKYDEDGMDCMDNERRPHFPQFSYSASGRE

IC50 [2] [nM]	IC50 [3] [nM]	Structure (SMILES)	T/C ([1]; 50 mg/kg QD po) [%]	TGI ([1]; 50 mg/kg QD po) [%]	TV on the day of the end of the experiment ([1]; 50 mg/kg QD po) [mm^3]	TV on the day of grouping and administration ([1]; 50 mg/kg QD po) [mm^3]	other results
89	613	CC(C)NC[C@@H](C(=O)N1CCN(c2ncnc3c2[C@H](C)OC(=O)N3)[C@H]2C[C@H]21)c1ccc(Cl)cc1 (single isomer, unassigned) [Isomer 2 of Example 3]	–	–	–	–	–
0.12	0.6	CC(C)NC[C@@H](C(=O)N1CCN(c2ncnc3c2[C@H](C)OC(=O)N3)[C@H]2C[C@H]21)c1ccc(Cl)cc1 (single isomer, unassigned; isomer 4) [Isomer 4 of Example 3]	10.29	89.71	99.30±40.55	177.90±10.06	tumor inhibiting effect in the in vivo experiment ([1]; result in words): obvious tumor inhibiting effect

Further lines, the molecule ahead of its results:

Structure (SMILES)	IC50 [2] [nM]	IC50 [3] [nM]	T/C ([1]; 50 mg/kg QD po) [%]	TGI ([1]; 50 mg/kg QD po) [%]	TV on the day of the end of the experiment ([1]; 50 mg/kg QD po) [mm^3]	TV on the day of grouping and administration ([1]; 50 mg/kg QD po) [mm^3]	other results
CC(C)NC[C@@H](C(=O)N1CCN(c2ncnc3c2[C@H](C)CC(=O)N3)[C@H]2C[C@H]21)c1ccc(Cl)cc1 [Isomer 2 of Example 1, (R)-4-((1S,6R)-5-((S)-2-(4-chlorophenyl)-3-(isopropylamino)propionyl)-2,5-diazabicyclo[4.1.0]heptan-2-yl)-5-methyl-5,8-dihydropyrido[2,3-d]pyrimidin-7(6H)-one]	–	–	4.52	95.48	43.64±16.62	177.78±6.64	T/C ([1]; 12.5 mg/kg QD po): 41.57%; TGI ([1]; 12.5 mg/kg QD po): 58.43%; TV on the day of the end of the experiment ([1]; 12.5 mg/kg QD po): 401.07±80.17 mm^3; TV on the day of grouping and administration ([1]; 12.5 mg/kg QD po): 177.76±6.67 mm^3; T/C ([1]; 25 mg/kg QD po): 15.90%; TGI ([1]; 25 mg/kg QD po): 84.10%; TV on the day of the end of the experiment ([1]; 25 mg/kg QD po): 153.42±23.11 mm^3; TV on the day of grouping and administration ([1]; 25 mg/kg QD po): 177.80±6.71 mm^3
C[C@@H]1CC(=O)Nc2ncnc(N3CCN(C(=O)[C@H](CNC4CC4)c4ccc(Cl)cc4)[C@H]4C[C@H]43)c21 (single isomer, unassigned) [Isomer 1 of Example 1]	13	–	–	–	–	–	–
C[C@@H]1CC(=O)Nc2ncnc(N3CCN(C(=O)[C@H](CNC4CC4)c4ccc(Cl)cc4)[C@@H]4C[C@@H]43)c21 [Isomer 2 of Example 2, (R)-4-((1S,6R)-5-((S)-2-(4-chlorophenyl)-3(cyclopropylamino)propionyl)-2,5-diazabicyclo[4.1.0]heptan-2-yl)-5-methyl-5,8-dihydropyrido[2,3-d]pyrimidin-7(6H)-one]	–	–	19.44	80.56	187.49±22.88	–	–
